Test results: paper PMC4525288, “Structures of FolT in substrate-bound and substrate-released conformations reveal a gating mechanism for ECF transporters” (Nature Communications, 2015)

Columns and labels:
[1] = target: T1, EfFolT (Enterococcus faecalis, UniProt Q837A3, K145T); assay: biochemical
T1 construct: gene EF_0940

[2] = target: T2, EfFolT (Enterococcus faecalis, UniProt Q837A3, N117A); assay: biochemical
T2 construct: gene EF_0940

[3] = target: T3, EfFolT (Enterococcus faecalis, UniProt Q837A3, T121A); assay: biochemical
T3 construct: gene EF_0940

[4] = target: T4, EfFolT (Enterococcus faecalis, UniProt Q837A3); assay: isothermal titration calorimetry; crystal structure […] A; type: binding; conditions: read-out: Dissociation constant/KD
T4 construct: gene EF_0940; full-length S component without ECF module; N-terminal His6 tag (pET28a, NdeI/XhoI), E. coli BL21(DE3), detergent-purified
T4 sequence (Q837A3 1-179): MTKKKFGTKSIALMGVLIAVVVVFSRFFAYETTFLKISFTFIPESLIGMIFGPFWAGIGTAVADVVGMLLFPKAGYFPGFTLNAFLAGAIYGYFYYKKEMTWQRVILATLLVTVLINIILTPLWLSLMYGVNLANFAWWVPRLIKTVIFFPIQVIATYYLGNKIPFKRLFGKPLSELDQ

[5] = target: T5, EfFolT (Enterococcus faecalis, UniProt Q837A3, F80W); assay: biochemical
T5 construct: gene EF_0940

[6] = target: T6, EfFolT (Enterococcus faecalis, UniProt Q837A3, Y129A); assay: biochemical
T6 construct: gene EF_0940

[7] = target: T7, EfFolT (Enterococcus faecalis, UniProt Q837A3, K36A); assay: biochemical
T7 construct: gene EF_0940

[8] = target: T8, EfFolT (Enterococcus faecalis, UniProt Q837A3, T81A); assay: biochemical
T8 construct: gene EF_0940

[9] = target: T9, EfFolT (Enterococcus faecalis, UniProt Q837A3, R26A); assay: biochemical
T9 construct: gene EF_0940

[10] = target: T10, EfFolT (Enterococcus faecalis, UniProt Q837A3, K36R); assay: biochemical
T10 construct: gene EF_0940

[11] = target: T11, EfFolT (Enterococcus faecalis, UniProt Q837A3, K145A); assay: biochemical
T11 construct: gene EF_0940

Structure (SMILES): Nc1nc2ncc(CNc3ccc(C(=O)N[C@@H](CCC(=O)O)C(=O)O)cc3)nc2c(=O)[nH]1 [folate]
- Kd [1]: 3690 nM
- Kd [2]: 68.6 ± 6.4 nM
- Kd [3]: 288 ± 21.1 nM
- Kd [4]: 29.8 ± 4.7 nM
- Kd [5]: 499 ± 25.8 nM
- Kd [6]: 635 ± 33.6 nM
- Kd [7]: 5400 nM
- Kd [8]: 813 ± 162 nM
- Kd [9]: 252 ± 22 nM
- Kd [10]: 91.5 ± 7.5 nM
- Kd [11]: 3300 ± 198 nM
